Test results: article PMC9610617, “Anti-HIV Ermiasolides from Croton megalocarpus” (Molecules, 2022)
≈ marks a conversion by molar mass, not a printed value. Where “and” joins values, the source holds several entries; their conditions need not be identical. Equal entries are not always repeated. Where two headings read alike, the source gives them in different places.

What was measured:
[1] = system: human T-lymphocytic MT-4 cells; experiment: in vitro; details: MT-4 cells, 5 days, MTT, mean ± S.E.M, n = 3; for MNTC, maximum nontoxic concentration: concentration with cell viability above 80% (CC20)
From the text: (§1) In this study, human T-lymphocyte MT-4 cells (ARP-120) were obtained from the National Institute of Health (NIH) HIV Reagent Program, Division of AIDS, National Institute of Allergy and Infectious Diseases (NIAID), NIH; donated by Dr. Douglas Richman. Human T-lymphocytic MT-4 cells express CD4, CXCR4 and CCR5 and are used for cytotoxicity inhibition assays for antiviral drugs. The vials containing frozen MT-4 cells were retrieved from the liquid nitrogen tank and rapidly thawed. In a tissue culture laminar flow hood, the exterior of the vials was decontaminated by spraying 70% ethanol. […] The CCM was sterilized with a 0.22 µm membrane filter before use. The cultures were incubated at 37 °C in a humidified incubator with atmospheric conditions of 5% CO2. […] The cell count and viability were measured by the trypan blue dye exclusion technique.
(§2) The cytotoxicity test was conducted to evaluate the cytotoxicity of the plant extracts by measuring cell death caused by the plant extracts. The assay was conducted using an MTT colorimetric assay as described by. The MTT assay is based on the reduction of the yellow-colored tetrazolium salt MTT 3-(4,5-dimethylthiazol-2-yl)-2,5-diphenyltetrazolium bromide) by NAD(P)H-dependent cellular oxidoreductase enzymes to an insoluble dark-blue colored formazan that can be measured spectrophotometrically. Formazan production indicates the number of viable cells; therefore, an increase or decrease in cellular viability results in a change in the amount of formazan formed, which indicates the degree of cellular cytotoxicity (CC50) caused by the plant extract.
(§3) MTT (3-(4,5-dimethylthiazol-2-yl)-2,5-diphenyl tetrazolium bromide) was dissolved in PBS to obtain a final concentration of 5 mg/mL and filtered to sterilize and remove insoluble residue. The assay was carried out in 96-well, flat-bottomed microtiter plates. To each well, 200 µL of MT-4 cells (1 × 10^5 cells) in growth media was added. The plates were preincubated for 24 h at 37 °C to allow stabilization. Then, 50 μL of the test compounds (at a concentration of 4 mg/mL) were added to the first column of the well. With a multichannel pipette, 50 μL was transferred (in triplicate) from the wells labeled 1 to wells labeled 2, and such transfers were continued (serial dilution), moving from left to right, changing tips prior to mixing contents of the next column of wells. Finally, 50 μL was discarded from the wells in column 12. […] Each dilution was tested in triplicate. The negative control (NC) wells contained 50 µL of MT-4 cells in 0.5% DMSO [39].
(§4) A 96-well microtiter plate containing the test compounds, positive and negative controls was incubated at 37 °C in a humidified atmosphere of 5% CO2 for 5 days. After incubation, 20 μL of MTT reagent (5 mg/mL MTT in phosphate-buffered saline) was added to each test well and control well. The plate was further incubated at 37 °C in a CO2 incubator for 4 h. After 4 h of incubation, 100 μL of DMSO was added to dissolve the dark-blue formazan crystals from surviving cells. After the formazan crystals were dissolved completely, the resulting optical density (OD) readings were measured relative to the controls on an ELISA plate reader at 570 nm at a reference wavelength of 620 nm. […] The concentration that determined cell viability above 80% (CC20) was chosen as the maximum non-toxic concentration (MNTC).

[2] = system: HIV-1IIIB; experiment: Anti-HIV activity: inhibition of HIV-induced cytopathic effect in infected MT-4 cells (MTT); assay type: cell-based, Human immunodeficiency virus type 1; details: for IC50: Human immunodeficiency virus 1, MT4, 120 h; for SI, selective index: ratio CC50 (MT-4) / IC50 (HIV-1IIIB)
Experimental: Human immunodeficiency virus type 1 (HIV-1IIIB) strain was obtained from the NIH HIV Reagent Program, Division of AIDS, NIAID, NIH. Dr. Robert Gallo donated human immunodeficiency virus-1 IIIB (ARP-398). HIV-1IIIB is highly capable of replicating in human T cell lines and appears to be well adapted for in vitro culture in T cells. The frozen HIV-1IIIB vials were thawed by immersion in room temperature water, and the vial was swirled until viruses were thawed. Then, 400 µL of the virus was transferred to 75 cm^2 tissue culture flasks (T75) containing 10 mL of 1 × 10^5 pelleted MT4 cells/mL, vortexed and incubated at 37 °C for 1 hr for virus adsorption. After 1 hr, 20 mL of RPMI-1640 was added gently and mixed with vortexing. The cells were then pelleted by centrifuging at 1500 rpm for 5 min. The pelleted cells were then washed and resuspended in 30 mL RPMI 1640 with L-glutamine and 20% fetal bovine serum in a T75 flask, incubated at 37 °C and monitored for the development of cytopathic effects (CPEs).
The virus infectivity test was performed to determine the infectious titer of the virus, which can cause cytopathic effects (CPE) in tissue culture over a reasonable period of 3 to 10 days while cells in culture remain viable. In addition, this procedure was performed to quantify the amount of virus required to produce a cytopathic effect in 50% of cell culture replicates (TCID50). CPE induced by the virus was observed under a microscope after 3–4 days. The TCID50 was then calculated as described by. For the anti-HIV activity testing, 640 µL of HIV-1IIIB virus at 1.26 × 10^8 TCID50/mL was used to infect 1 × 10^8 cell/mL. All procedures were carried out following biosafety guidelines defined in the BMBL, NIH-CDC HHS Publication No. (CDC) 21-1112 [44].
MT-4 cells suspended at 1 × 10^8 cells/mL were infected with 640 µL of HIV-1IIIB virus at 1.26 × 10^8 TCID50/mL as described in above. After infection, 200 µL HIV-infected MT-4 cells (1 × 10^5 cells/well) in growth media were added to each well. The plates were preincubated for 24 h at 37 °C to allow stabilization. Then, 50 μL of the test compounds (at a concentration of 4 mg/mL) were added to the first column of the well. With a multichannel pipette, 50 μL was transferred (in triplicate) from the wells labeled 1 to wells labeled 2. Such transfers were continued (serial dilution), moving from left to right, changing tips prior to mixing contents of the next column of wells. Finally, 50 μL was discarded from the wells in column 12. Different concentrations ([…]) of test compounds were prepared through serial dilution. Each dilution was tested in triplicate. The microtiter plates were incubated at 37 °C in a 5% CO2 incubator for 5 days. […] After 5 days of incubation, cell viability was determined by the MTT assay as described by.
A dose-response curve was plotted to calculate the concentrations that reduced viral replication by 50% (IC50). […] The efficacy of the test compounds, was determined by calculating the viral inhibition rate (EmaxAV) using Equation (1), as previously described by.

[3] = in vitro; details: human, MT-4 T-lymphocytic cells
From the text: as §1, §2, §3, §4

[4] = HIV-1IIIB-infected MT-4 cells, 5 days, MTT, mean ± S.E.M, n = 3
[5] = read-out: IC50, 50% antiviral effect concentration, HIV-1IIIB-infected MT-4 cells, 5 days, MTT, mean ± S.E.M, n = 3

SMILES | MNTC, maximum nontoxic concentration [1] | CC50, 50% cytotoxic concentration [1] | EmaxC, maximum cytotoxic effect % [1] | EmaxAV, maximum antiviral effect % (viral inhibition rate) [2, 4] | IC50 ([2]; HIV-1IIIB-infected MT-4 cells, 5 days, MTT, mean ± S.E.M, n = 3, read-out: IC50, 50% antiviral effect concentration) | SI, selective index [2] | IC50 [2, 5] | CC50 at 5 days [3] | IC50, 50% antiviral effect concentration [2, 4]
Nc1nc(NC2CC2)c2ncn([C@H]3C=C[C@@H](CO)C3)c2n1 [ABC, abacavir, reference compound] | 0.18 ± 0.03 µg/mL | 0.26 ± 0.00 µg/mL (≈ 0.908 µM) | 17.83 ± 0.57% | 58.67 ± 0.43% | 0.05 ± 0.031 µg/mL (≈ 0.175 µM) | 5.0 | – | – | –
Cc1cn([C@H]2C[C@H](N=[N+]=[N-])[C@@H](CO)O2)c(=O)[nH]c1=O [AZT, zidovudine, reference compound] | – | – | – | 83.5 ± 0.57% | – | – | 0.002 µg/mL (≈ 0.00748 µM) | – | –
CO[C@@]12C[C@]3(C)CCC[C@H](C)[C@@]3(O)CC1=C(C)C(=O)O2 [Compound 1, 5β-Hydroxy-8α-methoxy eudesm-7(11)-en-12,8-olide] | 41.84 ± 0.11 µg/mL | – | 62.21 ± 0.67% | 93% and 93.4 ± 0.60% | – | 39,872.3 | 0.002 µg/mL (≈ 0.00713 µM) | 96.77 ± 0.44 µg/mL (≈ 345 µM) | –
CC1=C2C[C@]3(O)[C@@H](C)CCC[C@@]3(C)C[C@@]2(O)OC1=O [Compound 2, 5β,8α-Dihydroxy eudesm-7(11)-en-12,8-olide] | 4.973 ± 0.25 µg/mL | – | 81.59 ± 0.41% | 69.5% and 69.51 ± 0.26% | – | 25,339.5 | 0.002 µg/mL (≈ 0.00751 µM) | 38.4 ± 0.63 µg/mL (≈ 144 µM) | –
CC1=C2C[C@]3(O)[C@@H](C)CCC[C@@]3(C)C[C@@H]2OC1=O [Compound 3, 5β-Hydroxy-8H-β-eudesm-7(11)-en-12,8-olide] | 64.93 ± 0.26 µg/mL | – | 65.00 ± 0.01% | 77.5% and 77.46 ± 0.93% | – | 3384.4 | 0.04 µg/mL (≈ 0.16 µM) | 148.1 ± 0.05 µg/mL (≈ 592 µM) | 0.044 ± 0.01 µg/mL (≈ 0.176 µM)
Cc1ccnc2c1NC(=O)c1cccnc1N2C1CC1 [NVP, Nevirapine, reference compound] | 0.57 ± 0.0 µg/mL | 0.82 ± 0.0 µg/mL (≈ 3.08 µM) | 39.13 ± 0.65% | 72.53 ± 0.47% | – | 3.5 | 0.24 ± 0.09 µg/mL (≈ 0.901 µM) | – | –
C[C@H](Cn1cnc2c(N)ncnc21)OCP(=O)(O)O [TDF, tenofovir] | 4.92 ± 0.71 µg/mL | 6.73 ± 0.24 µg/mL (≈ 23.4 µM) | 13.17 ± 0.43% | 80.55 ± 0.46% | – | – | 0.04 ± 0.01 µg/mL (≈ 0.139 µM) | – | –
